Data taken from US11389423B2, “Pharmaceutical composition, excipient for the composition and use of the composition” (priority 2018, dated 2022).

Experiments:
[1] = system: mice (male and female); experiment: Single dose (acute) toxicity study in mice; assay type: in vivo
Procedure: The single-dose (acute) toxicity study was carried out with different groups of rats and mice (male and female) and according to the procedures recommended by OECD (2001) and ANVISA (2013).
After a 6 h-fasting period, the animals' body weight was determined, and the dose of the synthetic CBD was calculated. Two single doses (1000 and 2000 mg/kg) of synthetic CBD were administered orally (with the aid of a gavage probe) and intraperitoneally in different groups of rats and mice (male and female). Other different groups of rodents were treated with placebo and were considered as control groups.
The animals were carefully observed for any toxicity signs within the first eight hours after treatment, and daily for a period of 14 days. On the 15th day all animals were euthanized, and the respective anatomopathological investigations were performed on the 15th day after the treatments.

[2] = system: Salmonella typhimurium TA98; experiment: AMES test, strain TA98; assay type: cell-based; settings: TA98, with (+S9) and without (-S9) metabolic activation, 62.5-375 μg/plate
Excerpt: For the AMES test, the TA 100 and TA 98 strains of Salmonella typhimurium were used. The strain TA 100, which detects mutagens causing base pair replacement in DNA, contains a mutation in the hisG gene (hisG46), which codes for the first histidine biosynthesis enzyme, with the CG pair as the preferred point for reversion. The strain TA 98 has a mutation in the hisD gene to reverse eight repetitive GC residues and detects mutagenic compounds causing the DNA reading frame to shift. According to the methodology of direct incorporation in plates, developed by Maron and Ames (1983), different concentrations of CBD-SINT (375, 250, 125 and 62.5 μg/plate) were mixed with 0.1 mL of the bacteria culture and 2 mL of surface agar (top agar), supplemented with traces of histidine and biotin. For the tests with metabolic activation, 0.5 mL homogenized microsomal fraction S9 of rat liver (post-mitochondrial fraction, supplemented with a cofactor, prepared from the liver of rodents treated with an enzymatic inducing agent, arochloror 1254) (MOLTOX—Molecular Toxicology, USA) were added. As a negative control, double-distilled water (vehicle) was used. As a positive control for TA98, 4-nirophenylenediamine (NPD) dissolved in DMSO was used at a concentration of 10 μg/plate. […] After this period, the number of reversing colonies per plate was counted. […]

[3] = system: male rabbits; experiment: Blood pressure measurement and heart rate; assay type: in vivo, New Zealand rabbits; settings: for heart rate: anesthetized male rabbits
Procedure: (§1) Male New Zealand rabbits (n=6 per group) were used for pharmacological safety tests. All tests were performed orally (route recommended for humans) and the investigated parameters were determined after a single administration of CBD-SINT. CBD-SINT doses were determined by allometric extrapolation from the average dose used in human patients (25 mg/kg).
(§2) The dose of 51 mg/kg was used as the intermediate dose, stipulating a higher and a lower dose. Three dose ranges were used according to the Guide for Conducting Non-Clinical Toxicology and Pharmacological Safety Studies Necessary for Drug Development (ANVISA, 2013; Version 1.2). Thus, the doses used were 17, 51 and 170 mg/kg of CBD-SINT.
b) Blood pressure measurement, after a 6-h fasting, three doses of CBD-SINT (17, 51 and 170 mg/kg) were administered to different groups of male rabbits by gavage. Placebo was administered to the control group (1 mL/kg). 40 minutes after treatments all rabbits were anesthetized with 10 mg/kg diazepam intramuscularly combined with 115 mg/kg ketamine. Then, the animals received a bolus injection of heparin (50 IU) subcutaneously. Tracheostomy was performed to allow animals to breathe spontaneously. Then, the left carotid artery was isolated, cannulated, and connected to a pressure transducer coupled to a PowerLab recording system (Chart 5.0, ADI Instruments, Castle Hill, Australia). After 15 minutes for hemodynamic stabilization, systolic blood pressure (SBP), diastolic blood pressure (DBP) and mean arterial pressure (MAP) were recorded for another 20 min.

[4] = system: male rabbits; experiment: Arterial blood gas analysis; assay type: in vivo, New Zealand rabbits; settings: male rabbits, 17, 51 and 170 mg/kg by gavage
Procedure: as §1, §2
After 6-h fasting, three doses of CBD-SINT (17, 51 and 170 mg/kg) were administered to different groups of male rabbits by gavage. […] The respiratory rate was determined using a Kofranyi-Michaelis respirometer (Murphy, 2002). […] All parameters below were determined on a Cobas b 221 multiparametric blood gas analyzer (Roche Diagnostics, Rotkreuz, Switzerland): pH, PCO2 (mm Hg), PO2 (mm Hg), SO2(%), Htc (%), tHb (g/dL), Na+ (mmol/L), K+ (mmol/L), Ca2+ (mmol/L), Cl− (mmol/L), glucose (mg/dL), lactate (mmol/L), O2Hb (%), HHb (%), P50 (mm Hg), H+ (nmol/L), BE (nmol/L), BEecf (nmol/L), BB (mmol/L), cHCO3 (mmol/L), ctCO2 (B) (mmol/L), ctCO2 (P) (mmol/L) and ctO2 (% by volume).

[5] = system: male rabbits; experiment: Effects on central nervous system, modified Irwin test; assay type: in vivo, New Zealand rabbits; settings: male rabbits, 17, 51 and 170 mg/kg by gavage, single dose
Procedure: as §1, §2
Effects on the central nervous system were assessed in male rabbits according to the modified Irwin test (Roux et al., 2005).
After 6 h-fasting, three doses of CBD (17, 51 and 170 mg/kg) were administered to different groups of male rabbits by gavage. Placebo was administered to the control group (1 mL/kg). The solid diet was released to the animals 1 hour after the treatments.
The clinical and behavioral effects were assessed at 0-15 min, 15, 30, 60, 120 and 180 min and 24 h after administrations. […]

[6] = 1000 mg/kg and 2000 mg/kg intraperitoneally, single dose

Structure (SMILES): C=C(C)[C@@H]1CCC(C)=C[C@H]1c1c(O)cc(CCCCC)cc1O [CBD-SINT, Cannabidiol]
- abdominal contortions during the first 8 hours [1, 6]: occasional abdominal contortions
- activity during the first 8 hours of observation [1, 6]: significant decrease in its activity
- daily feed and water consumption compared to placebo ([1]; 1000 and 2000 mg/kg, oral or intraperitoneal): no change
- final body weight and body weight gains vs placebo ([1]; 1000 and 2000 mg/kg, oral or intraperitoneal, 14 days): similar
- appearance and general behavior pattern until the end of the 14-days observation ([1]; 1000 and 2000 mg/kg, oral or intraperitoneal, after the first 8 h): no significant changes
- absolute (g) or relative (%) weight of all organs vs placebo ([1]; after 14 days): no significant differences
- histopathological analyzes ([1]; day 15): no significant changes
- macroscopic examination of vital organs ([1]; day 15): did not disclose any abnormalities
- deaths (LD50 not set forth) ([1]; doses up to 2000 mg/kg orally or intraperitoneally, 14 days): no deaths were observed
- frequency of reversible mutants with the increase in concentration [2]: no increase
- mutagenicity ratios (MR) [2]: less than 2
- heart rate ([3]; 17 mg/kg oral): 285±18 bpm
- heart rate ([3]; 51 mg/kg oral): 279±20 bpm
- heart rate ([3]; 170 mg/kg oral): 275±17 bpm
- blood pressure levels (systolic, diastolic, mean arterial) compared to the control group ([3]; anesthetized male rabbits, 17, 51 or 170 mg/kg oral): did not significantly change
- arterial blood gases, electrolytes and metabolites (pH, PCO2, PO2, SO2, Htc, tHb, Na+, K+, Ca2+, Cl-, glucose, lactate, O2Hb, HHb, P50, H+, BE, BEecf, BB, cHCO3, ctCO2, ctO2) vs placebo [4]: none of the CBD-SINT doses changed
- animals' behavior or physiological status until the end of the 24 h [5]: no significant changes
- inactivity or refusal to consume food or water during the observation period (24 h) [5]: none of the experimental animals was inactive or refused to consume food or water
